Test results as given in article PMC7274078, “Brain Endothelial Cells Regulate Glucagon-Like Peptide 1 Entry Into the Brain via a Receptor-Mediated Process” (Frontiers in Physiology, 2020).

How the values were obtained:
[1] = tested on: protein kinase A (PKA); assay: PKA activity in brain regions and cerebral microvessels after GLP-1 infusion; format: in vivo, rat
Method: Each rat received a systemic infusion of either saline or GLP-1 (Abcam, Cambridge, United Kingdom) (30 pmol/kg/min) via the jugular vein catheter for 10 min. Plasma samples were then collected and rats sacrificed via anesthetic overdose. Cerebral spinal fluid (CSF) and various brain regions (cerebellum, cortex, hippocampus, hypothalamus, and brain stem) were collected for further assays. Cerebral microvessels were isolated as described ([Austin et al., 2010]). Briefly, brain tissue was disrupted with a razor blade followed by passing through an 18G needle. Vessel fragments were harvested using dextran-gradient centrifugation, then collected on a 20 μm pore filter, washed to remove cell debris, and reconstituted in buffer. This was followed by passing through a 100 μm pore size filter. Brain vessels that can pass through the 100 μm filter were considered as cerebral microvessel and used for protein kinase A (PKA) activity assay. […]
(§1) All plasma and CSF samples collected during the study were frozen immediately and stored at −80°C until further analysis of GLP-1 concentration using a total GLP-1 ELISA kit (Merck Millipore, Billerica, MA, United States) ([Knezovic et al., 2018]). To measure PKA activity in brain tissue, cerebral microvessels, or cultured cells, samples were homogenized and lysed in PKA lysis buffer and activity determined using a Pep Tag® non-radioactive protein kinase assay kit (Promega, Madison, WI, United States) ([Christian et al., 2011]). […]
FIGURE 2 GLP-1 infusion increases PKA activity in various brain regions in both normal and vagotomized rats. […] PKA activities in various brain regions were determined in normal rats (A,B) and vagotomized rats (D,E). […] (B,E), Quantitative analysis (B, n = 7; *p < 0.05 vs. saline infusion, Student’s t test) (E, n = 6; *p < 0.05 vs. saline infusion, Student’s t test).
(§2) Each rat received a systemic infusion of either saline or GLP-1 (30 pmol/kg/min) for 10 min, GLP-1 concentrations in CSF and plasma were determined and cerebral microvessels were isolated. […] (D) Quantitative analysis of PKA activity (n = 6, *p < 0.05, Student’s t test).

[2] = GLP-1 concentrations in plasma and CSF (total GLP-1 ELISA); format: in vivo; conditions: rat, systemic infusion 30 pmol/kg/min for 10 min, n = 4
Method: Each rat received a systemic infusion of either saline or GLP-1 (Abcam, Cambridge, United Kingdom) (30 pmol/kg/min) via the jugular vein catheter for 10 min. Plasma samples were then collected and rats sacrificed via anesthetic overdose. Cerebral spinal fluid (CSF) and various brain regions (cerebellum, cortex, hippocampus, hypothalamus, and brain stem) were collected for further assays. Cerebral microvessels were isolated as described ([Austin et al., 2010]). Briefly, brain tissue was disrupted with a razor blade followed by passing through an 18G needle. […]
as §1, §2

[3] = Microvascular perfusion in hippocampus and skeletal muscle (contrast-enhanced ultrasound), with blood glucose and MAP; format: in vivo; conditions: rat
Method: After a 30–45 min baseline period to ensure hemodynamic stability and a stable level of anesthesia, baseline microvascular blood volume (MBV) and microvascular flow velocity (MFV), in the hippocampus and skeletal muscle were determined using contrast-enhanced ultrasound (CEU), as described previously ([Chai et al., 2010]; [Fu et al., 2013], [2017]). In brief, microbubbles (Definity; Lantheus Medical Imaging) were diluted with normal saline (1:10 vol:vol) and infused intravenously at a rate of 0.8 mL/h. Once the systemic microbubble concentrations reached steady state (∼6 min), high-power pulse-inversion ultrasound (HDI-5000; Philips Ultrasound) was used to image the microbubble signals in the hippocampus and the proximal adductor muscle group (adductor magnus and semimembranosus). Intermittent imaging was performed at pulsing intervals ranging from 0.5 to 10 s. At least three images were acquired at each pulsing interval, and the images obtained at 0.5 s were used as background. Pulsing interval vs. background-subtracted video intensity was fitted to the function y = A (1 − e^−βt, with y being video intensity at pulsing interval t. A as the plateau video intensity measures MBV and β represents the rate of microvascular filling (i.e., MFV). Microvascular blood flow (MBF) was calculated by multiplying MBV and MFV. All CEU images were analyzed using the QLAB software (Philips Medical Systems, Andover, MA, United States).
After the baseline hippocampal and muscle microvascular parameters were obtained, rats then received a continuous intravenous infusion of either saline or GLP-1 (30 pmol/kg/min) for 120 min. Hippocampal microvascular parameters (MBV, MFV, and MBF) were again determined every 30 min and muscle microvascular parameters at 120 min using CEU. Throughout the study, mean arterial blood pressure (MAP) was monitored via a sensor connected to the carotid catheter (Harvard Apparatus, Holliston, MA, United States, and AD Instruments, Inc., Colorado Springs, CO, United States). Inactin was infused at a variable rate to maintain steady levels of anesthesia and blood pressure throughout the study. Carotid arterial blood glucose concentrations were determined every 30 min using a Contour Next glucometer (BAYER). At the end of each study the rat was euthanized by an overdose of inactin.
FIGURE 8 GLP-1 infusion increases muscle but not […] microvascular perfusion. Each rat received a systemic infusion of saline or GLP-1 at 30 pmol/kg/min for 120 min and MBV, MFV and MBF were determined using contrast-enhanced ultrasound in both […] (A,B,C) and muscle (D,E,F) (n = 6, *p < 0.05, vs. control, Student’s t test).

[4] = tested on: DPP4; conditions: plasma, degradation by DPP4; no reference given; cited from earlier work
Text: GLP-1 receptors are expressed in multiple brain areas in rodents, primates, and humans and they are involved in learning, neuroprotection and regulation of appetite and satiety ([Wei and Mojsov, 1995]; [During et al., 2003]; [Richards et al., 2014]). Global knockout of the GLP-1 receptor in mice impairs synaptic plasticity and memory formation ([Abbas et al., 2009]). […] Indeed, pre-treatment of animals w ...

[5] = 30 pmol/kg/min i.v. for 120 min, contrast-enhanced ultrasound, n = 6
[6] = 30 pmol/kg/min i.v. for 120 min, n = 6
[7] = 30 pmol/kg/min i.v., at 120 min, contrast-enhanced ultrasound, n = 6, p < 0.05

Substance: Glucagon-like peptide 1 [GLP-1]
- PKA activity in brain microvessels ([1]; isolated cerebral microvessels, rat, GLP-1 30 pmol/kg/min for 10 min, n = 6, p < 0.05): acutely increased
- PKA activities in all brain regions ([1]; normal rats, GLP-1 30 pmol/kg/min infusion for 10 min vs saline, n = 7, p < 0.05): significantly increased
- PKA activity in various brain regions ([1]; sham-operated and sub-diaphragmatic vagotomized rats, GLP-1 30 pmol/kg/min for 10 min, n = 6): rapid and robust increase
- levels of GLP-1 in CSF [2]: remained undetectable
- plasma GLP-1 concentrations [2]: markedly increased
- hippocampal MBF [3, 5]: did not alter
- hippocampal MBV [3, 5]: did not alter
- hippocampal MFV [3, 5]: did not alter
- Blood glucose during the study [3, 6]: remained stable
- MAP during the study [3, 6]: remained stable
- MFV in muscle ([3]; 30 pmol/kg/min i.v., at 120 min, contrast-enhanced ultrasound, n = 6): without affecting
- MBF in muscle [3, 7]: markedly increase
- MBV in muscle [3, 7]: markedly increase
- half-life [4]: ~2 min
